Among the data in patent US10160724B2, “Tetrahydropyridine derivatives and their use as antibacterial agents” (Dong-A St Co., Ltd., priority 2016, dated 2018) are MIC values, retold here.

Each structure is given as a SMILES string. ≈ marks a conversion by molar mass, not a printed value. A value given as a limit tells only on which side of the number the result lay.

Holding throughout (assay): In vitro antibiotic activity, agar dilution method (Mueller-Hinton agar, NCCLS)
What all share (type): cell-based
Background: In agar dilution the substance is mixed into plates at graded concentrations.

The test system of one assay is P. aeruginosa PAO1. Conditions: Pseudomonas aeruginosa, PAO1; agar dilution, Mueller-Hinton agar; read-out: MIC for P. aeruginosa PAO1. The procedure: (§1) To measure the antibiotic activity of the compounds prepared by Examples, antibiotic activity test in vitro was performed by agar dilution method using Mueller-Hinton agar according to the NCCLS (National Committee for Clinical Laboratory Standards. 2000. Methods for dilution antimicrobial susceptibility tests for bacteria that grow aerobiocally. Approved standard, NCCLS document M7-M5, 5th ed, vol 20, no 2. National Committee for Clinical Laboratory Standards, Wayne, Pa.). The test strain was Escherichia coli (ATCC 25922), Klebsiella pneumonia (ATCC 29665) and Pseudomonas aeriginosa (PAO1).

The subject of a further assay is E. coli ATCC 25922. The note with it: Escherichia coli, ATCC25922; agar dilution, Mueller-Hinton agar; read-out: MIC for E. coli ATCC 25922. How it is done: as §1
Another assay deals with K. pneumoniae ATCC 29665. The note with it: Klebsiella pneumoniae, ATCC29665; agar dilution, Mueller-Hinton agar; read-out: MIC for K. pneumoniae ATCC 29665. How it is done: as §1

For `CC(CCN1CC=C(c2ccc(-c3ccc(CN4CCOCC4)cc3)cc2)CC1)(C(=O)NO)S(C)(=O)=O` (stereo not drawn) [Example 74, N-hydroxy-2-methyl-2-(methylsulfonyl)-4-(4-(4′-(morpholinomethyl)-[1,1′-biphenyl]-4-yl)-3,6-dihydropyridin-1(2H)-yl)butanamide], the MIC is 1 to 8 µg/mL (≈ 1.9 to 15.2 µM) in the assay with P. aeruginosa PAO1, below 1 µg/mL in the assay on E. coli ATCC 25922 and below 1 µg/mL in the assay on K. pneumoniae ATCC 29665.

On to `CN(C)CC#Cc1ccc(C2=CCN(CCC(C)(C(=O)NO)S(C)(=O)=O)CC2)c(F)c1` (stereo not drawn) [Example 33, 4-(4-(4-(3-(dimethylamino)prop-1-yn-1-yl)-2-fluorophenyl)-3,6-dihydropyridin-1(2H)-yl)-N-hydroxy-2-methyl-2-(methylsulfonyl)butanamide], for which the MIC lay within 1 to 8 µg/mL (≈ 2.21 to 17.7 µM) in the assay on P. aeruginosa PAO1, 1 to 8 µg/mL (≈ 2.21 to 17.7 µM) with E. coli ATCC 25922 and 8 to 16 µg/mL (≈ 17.7 to 35.4 µM) in the assay on K. pneumoniae ATCC 29665.

As for `CC(CCN1CC=C(c2ccc(C#CC3CC3)cc2)CC1)(C(=O)NO)S(C)(=O)=O` (stereo not drawn) [Example 4, 4-(4-(4-(cyclopropylethynyl)phenyl)-3,6-dihydropyridin-1(2H)-yl)-N-hydroxy-2-methyl-2-(methylsulfonyl)butanamide], the MIC with P. aeruginosa PAO1 is 1 to 8 µg/mL (≈ 2.4 to 19.2 µM); in the assay with E. coli ATCC 25922 it was below 1 µg/mL; in the assay on K. pneumoniae ATCC 29665 it was below 1 µg/mL.

`CC(CCN1CC=C(c2ccc(C#Cc3ccccc3)cc2)CC1)(C(=O)NO)S(C)(=O)=O` (stereo not drawn) [Example 2, N-hydroxy-2-methyl-2-(methylsulfonyl)-4-(4-(4-(phenylethynyl)phenyl)-3,6-dihydropyridin-1(2H)-yl)butanamide]: the MIC in the assay with P. aeruginosa PAO1 is 1 to 8 µg/mL (≈ 2.21 to 17.7 µM); with E. coli ATCC 25922 it was below 1 µg/mL; with K. pneumoniae ATCC 29665, 1 to 8 µg/mL (≈ 2.21 to 17.7 µM).

Regarding `CC(CCN1CC=C(c2ccc(-c3ccccc3)cc2)CC1)(C(=O)NO)S(C)(=O)=O` (stereo not drawn) [Example 56, 4-(4-([1,1′-biphenyl]-4-yl)-3,6-dihydropyridin-1(2H)-yl)-N-hydroxy-2-methyl-2-(methylsulfonyl)butanamide], the MIC was 8 to 16 µg/mL (≈ 18.7 to 37.3 µM) in the assay with P. aeruginosa PAO1, below 1 µg/mL in the assay with E. coli ATCC 25922 and below 1 µg/mL with K. pneumoniae ATCC 29665.

Consider `CC(CCN1CC=C(c2ccc(-c3ccoc3)cc2)CC1)(C(=O)NO)S(C)(=O)=O` (stereo not drawn) [Example 63, 4-(4-(4-(furan-3-yl)phenyl)-3,6-dihydropyridin-1(2H)-yl)-N-hydroxy-2-methyl-2-(methylsulfonyl)butanamide], for which the MIC was 8 to 16 µg/mL (≈ 19.1 to 38.2 µM) with P. aeruginosa PAO1, below 1 µg/mL with E. coli ATCC 25922 and below 1 µg/mL in the assay on K. pneumoniae ATCC 29665.

On to `Cc1csc(-c2ccc(C3=CCN(CCC(C)(C(=O)NO)S(C)(=O)=O)CC3)cc2)c1.Cl` (stereo not drawn) [Example 72, N-hydroxy-2-methyl-2-(methylsulfonyl)-4-(4-(4-(4-methylthiophen-2-yl)phenyl)-3,6-dihydropyridin-1(2H)-yl)butanamide hydrochloride], for which the MIC is above 16 µg/mL in the assay on P. aeruginosa PAO1, below 1 µg/mL in the assay with E. coli ATCC 25922 and below 1 µg/mL with K. pneumoniae ATCC 29665.

With `CC(CCN1CC=C(c2ccc(C#CC#CC3CC3)c(F)c2)CC1)(C(=O)NO)S(C)(=O)=O` (stereo not drawn) [Example 44, 4-(4-(4-(cyclopropylbuta-1,3-diyn-1-yl)-3-fluorophenyl)-3,6-dihydropyridin-1(2H)-yl)-N-hydroxy-2-methyl-2-(methylsulfonyl)butanamide], the MIC was 1 to 8 µg/mL (≈ 2.18 to 17.4 µM) in the assay with P. aeruginosa PAO1, below 1 µg/mL with E. coli ATCC 25922 and 1 to 8 µg/mL (≈ 2.18 to 17.4 µM) in the assay with K. pneumoniae ATCC 29665.

Regarding `CC(CCN1CC=C(c2ccc(C#CC#CCCO)c(F)c2)CC1)(C(=O)NO)S(C)(=O)=O` (stereo not drawn) [Example 43, 4-(4-(3-fluoro-4-(6-hydroxyhexa-1,3-diyn-1-yl)phenyl)-3,6-dihydropyridin-1(2H)-yl)-N-hydroxy-2-methyl-2-(methylsulfonyl)butanamide], the MIC in the assay on P. aeruginosa PAO1 was 1 to 8 µg/mL (≈ 2.16 to 17.3 µM); in the assay with E. coli ATCC 25922, below 1 µg/mL; in the assay with K. pneumoniae ATCC 29665, 1 to 8 µg/mL (≈ 2.16 to 17.3 µM).

As to `CC(CCN1CC=C(c2ccc(C#Cc3cccnc3)cc2)CC1)(C(=O)NO)S(C)(=O)=O` (stereo not drawn) [Example 36, N-hydroxy-2-methyl-2-(methylsulfonyl)-4-(4-(4-(pyridin-3-ylethynyl)phenyl)-3,6-dihydropyridin-1(2H)-yl)butanamide], the MIC in the assay on P. aeruginosa PAO1 is 1 to 8 µg/mL (≈ 2.2 to 17.6 µM); in the assay on E. coli ATCC 25922 it was below 1 µg/mL; with K. pneumoniae ATCC 29665 it was 1 to 8 µg/mL (≈ 2.2 to 17.6 µM).

On to `CC(CCN1CC=C(c2ccc(C#CCN3CCOCC3)cc2)CC1)(C(=O)NO)S(C)(=O)=O` (stereo not drawn) [Example 25, N-hydroxy-2-methyl-2-(methylsulfonyl)-4-(4-(4-(3-morpholinoprop-1-yn-1-yl)phenyl)-3,6-dihydropyridin-1(2H)-yl)butanamide], for which the MIC in the assay on P. aeruginosa PAO1, with E. coli ATCC 25922 and with K. pneumoniae ATCC 29665 was 1 to 8 µg/mL (≈ 2.1 to 16.8 µM) throughout.

`CC(CCN1CC=C(c2ccc(C#Cc3ccc(O)cc3)cc2)CC1)(C(=O)NO)S(C)(=O)=O` (stereo not drawn) [Example 37, N-hydroxy-4-(4-(4-((4-hydroxyphenyl)ethynyl)phenyl)-3,6-dihydropyridin-1(2H)-yl)-2-methyl-2-(methylsulfonyl)butanamide]: the MIC is above 16 µg/mL in the assay with P. aeruginosa PAO1, below 1 µg/mL in the assay on E. coli ATCC 25922 and above 16 µg/mL in the assay on K. pneumoniae ATCC 29665.

Regarding `CC(CCN1CC=C(c2ccc(C#CCOCCCO)cc2)CC1)(C(=O)NO)S(C)(=O)=O` (stereo not drawn) [Example 24, N-hydroxy-4-(4-(4-(3-(3-hydroxypropoxy)prop-1-yn-1-yl)phenyl)-3,6-dihydropyridin-1(2H)-yl)-2-methyl-2-(methylsulfonyl)butanamide], the MIC with P. aeruginosa PAO1, in the assay with E. coli ATCC 25922 and with K. pneumoniae ATCC 29665 was 1 to 8 µg/mL (≈ 2.15 to 17.2 µM) throughout.

Consider `CC(CCN1CC=C(c2ccc(-c3ccc(S(C)(=O)=O)cc3)cc2)CC1)(C(=O)NO)S(C)(=O)=O` (stereo not drawn) [Example 64, N-hydroxy-2-methyl-2-(methylsulfonyl)-4-(4-(4′-(methylsulfonyl)-[1,1′-biphenyl]-4-yl)-3,6-dihydropyridin-1(2H)-yl)butanamide], for which the figures for the MIC in the assay on P. aeruginosa PAO1, with E. coli ATCC 25922 and with K. pneumoniae ATCC 29665 were 1 to 8 µg/mL (≈ 1.97 to 15.8 µM), below 1 µg/mL and 1 to 8 µg/mL (≈ 1.97 to 15.8 µM), respectively.

For the compound `CC(CCN1CC=C(c2ccc(C#CCOC(N)=O)cc2)CC1)(C(=O)NO)S(C)(=O)=O` (stereo not drawn) [Example 26, 3-(4-(1-(4-(hydroxyamino)-3-methyl-3-(methylsulfonyl)-4-oxobutyl)-1,2,3,6-tetrahydropyridin-4-yl)phenyl)prop-2-yn-1-yl carbamate], the MIC in the assay on P. aeruginosa PAO1 is 1 to 8 µg/mL (≈ 2.22 to 17.8 µM); in the assay with E. coli ATCC 25922, 1 to 8 µg/mL (≈ 2.22 to 17.8 µM); in the assay on K. pneumoniae ATCC 29665, 8 to 16 µg/mL (≈ 17.8 to 35.6 µM).

In the case of `CC(CCN1CC=C(c2ccc(C#CCN3CCCC3)cc2)CC1)(C(=O)NO)S(C)(=O)=O` (stereo not drawn) [Example 15, N-hydroxy-2-methyl-2-(methylsulfonyl)-4-(4-(4-(3-(pyrrolidin-1-yl)prop-1-yn-1-yl)phenyl)-3,6-dihydropyridin-1(2H)-yl)butanamide], the MIC in the assay with P. aeruginosa PAO1 lay within 1 to 8 µg/mL (≈ 2.18 to 17.4 µM); in the assay with E. coli ATCC 25922, 1 to 8 µg/mL (≈ 2.18 to 17.4 µM); with K. pneumoniae ATCC 29665 it was 8 to 16 µg/mL (≈ 17.4 to 34.8 µM).

Consider `CC(CCN1CC=C(c2ccc(C#CCCCCO)cc2)CC1)(C(=O)NO)S(C)(=O)=O` (stereo not drawn) [Example 29, N-hydroxy-4-(4-(4-(6-hydroxyhex-1-yn-1-yl)phenyl)-3,6-dihydropyridin-1(2H)-yl)-2-methyl-2-(methylsulfonyl)butanamide], for which the MIC is 1 to 8 µg/mL (≈ 2.23 to 17.8 µM) in the assay with P. aeruginosa PAO1, below 1 µg/mL with E. coli ATCC 25922 and 1 to 8 µg/mL (≈ 2.23 to 17.8 µM) in the assay with K. pneumoniae ATCC 29665.

As to `CC(O)C#Cc1ccc(C2=CCN(CCC(C)(C(=O)NO)S(C)(=O)=O)CC2)cc1` (stereo not drawn) [Example 8, N-hydroxy-4-(4-(4-(3-hydroxybut-1-yn-1-yl)phenyl)-3,6-dihydropyridin-1(2H)-yl)-2-methyl-2-(methylsulfonyl)butanamide], the MIC with P. aeruginosa PAO1, in the assay with E. coli ATCC 25922 and with K. pneumoniae ATCC 29665 was above 16 µg/mL in each case.

On to `CC(CCN1CC=C(c2ccc(C#CC3CCCC3)cc2)CC1)(C(=O)NO)S(C)(=O)=O` (stereo not drawn) [Example 9, 4-(4-(4-(cyclopentylethynyl)phenyl)-3,6-dihydropyridin-1(2H)-yl)-N-hydroxy-2-methyl-2-(methylsulfonyl)butanamide], for which the MIC in the assay with P. aeruginosa PAO1 is above 16 µg/mL; in the assay with E. coli ATCC 25922, below 1 µg/mL; in the assay with K. pneumoniae ATCC 29665 it was 1 to 8 µg/mL (≈ 2.25 to 18 µM).

For `CN(C)CC#CC#Cc1ccc(C2=CCN(CCC(C)(C(=O)NO)S(C)(=O)=O)CC2)cc1` (stereo not drawn) [Example 49, 4-(4-(4-(5-(dimethylamino)penta-1,3-diyn-1-yl)phenyl)-3,6-dihydropyridin-1(2H)-yl)-N-hydroxy-2-methyl-2-(methylsulfonyl)butanamide], the MIC was below 1 µg/mL in the assay on P. aeruginosa PAO1, below 1 µg/mL in the assay on E. coli ATCC 25922 and 1 to 8 µg/mL (≈ 2.19 to 17.5 µM) with K. pneumoniae ATCC 29665.

Take `CC(CCN1CC=C(c2ccc(-c3ccc(S(=O)(=O)N4CCC4)cc3)cc2)CC1)(C(=O)NO)S(C)(=O)=O` (stereo not drawn) [Example 68, 4-(4-(4′-(azetidin-1-ylsulfonyl)-[1,1′-biphenyl]-4-yl)-3,6-dihydropyridin-1(2H)-yl)-N-hydroxy-2-methyl-2-(methylsulfonyl)butanamide]: the values for the MIC with P. aeruginosa PAO1, in the assay with E. coli ATCC 25922 and in the assay with K. pneumoniae ATCC 29665 were 1 to 8 µg/mL (≈ 1.83 to 14.6 µM), below 1 µg/mL and 1 to 8 µg/mL (≈ 1.83 to 14.6 µM), respectively.

Take `CC(CN1CC=C(c2ccc(-c3ccccc3)cc2)CC1)(C(=O)NO)S(C)(=O)=O` (stereo not drawn) [Example 76, 3-(4-([1,1′-biphenyl]-4-yl)-3,6-dihydropyridin-1(2H)-yl)-N-hydroxy-2-methyl-2-(methylsulfonyl)propanamide]: the MIC with P. aeruginosa PAO1, in the assay on E. coli ATCC 25922 and in the assay on K. pneumoniae ATCC 29665 was above 16 µg/mL in each case.

As to `CC(CCN1CC=C(c2ccc(-c3ccsc3)cc2)CC1)(C(=O)NO)S(C)(=O)=O` (stereo not drawn) [Example 70, N-hydroxy-2-methyl-2-(methylsulfonyl)-4-(4-(4-(thiophen-3-yl)phenyl)-3,6-dihydropyridin-1(2H)-yl)butanamide], the results for the MIC in the assay with P. aeruginosa PAO1, with E. coli ATCC 25922 and in the assay with K. pneumoniae ATCC 29665 were above 16 µg/mL, below 1 µg/mL and below 1 µg/mL, respectively.

For orientation: MIC means the least concentration at which growth counts as inhibited.
